Reference: ChEMBL document CHEMBL5505969, “Discovery of new piperaquine hybrid analogs linked by triazolopyrimidine and pyrazolopyrimidine scaffolds with antiplasmodial and transmission blocking activities” (Eur J Med Chem, 2024)
The source made the active and inactive calls. The calls are words filed in the database; no cut-off is given here.

Experiments:
[1] = target: T1, Dihydroorotate dehydrogenase (quinone), mitochondrial (Plasmodium falciparum (isolate 3D7)) (UniProt Q08210); test: Inhibition of Plasmodium falciparum DHODH assessed as residual activity at 100 uM measured over 60 secs by DCIP dye based colorimetric assay relative to control; settings: time > 60.0 sec
T1 sequence (whole entry): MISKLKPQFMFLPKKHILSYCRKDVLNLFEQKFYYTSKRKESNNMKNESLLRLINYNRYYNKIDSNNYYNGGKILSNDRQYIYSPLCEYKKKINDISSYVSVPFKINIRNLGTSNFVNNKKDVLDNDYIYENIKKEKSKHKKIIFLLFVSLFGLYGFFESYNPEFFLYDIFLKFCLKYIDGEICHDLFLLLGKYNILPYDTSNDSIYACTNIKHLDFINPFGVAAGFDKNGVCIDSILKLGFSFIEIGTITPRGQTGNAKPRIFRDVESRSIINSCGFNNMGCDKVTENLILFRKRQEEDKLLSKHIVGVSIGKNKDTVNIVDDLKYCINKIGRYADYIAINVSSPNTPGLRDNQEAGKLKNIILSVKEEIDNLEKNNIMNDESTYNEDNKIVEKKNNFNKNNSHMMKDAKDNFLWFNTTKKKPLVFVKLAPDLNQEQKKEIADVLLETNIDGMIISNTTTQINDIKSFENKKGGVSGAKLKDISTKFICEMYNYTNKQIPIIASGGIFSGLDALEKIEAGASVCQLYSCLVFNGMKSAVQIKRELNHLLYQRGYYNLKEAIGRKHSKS

Plasmodium falciparum [2] = test: Antiplasmodial activity against sorbitol-synchronized ring stage chloroquine sensitive Plasmodium falciparum 3D7 infected in erythrocytes measured after 48 hrs by SYBR green dye based fluorescence analysis; type: functional, organism-based; settings: 3D7, Erythrocyte
[3] = target: T1, Dihydroorotate dehydrogenase (quinone), mitochondrial (Plasmodium falciparum (isolate 3D7)); test: Inhibition of Plasmodium falciparum DHODH at 100 uM measured over 60 secs by DCIP dye based colorimetric assay relative to control; settings: time > 60.0 sec
Plasmodium falciparum [4] = test: Resistance index, ratio of IC50 for antiplasmodial activity against sorbitol-synchronized ring stage 2-(1,1-difluoroethyl)-5-methyl-N-(4-(pentafluoro-l6-sulfaneyl)phenyl)-[1,2,4]triazolo[1,5-a]pyrimidin-7-amine resistant Plasmodium falciparum Dd2 infected in erythrocytes to IC50 for antiplasmodial activity against sorbitol-synchronized ring stage chloroquine sensitive Plasmodium falciparum 3D7 infected in erythrocytes; type: functional
Plasmodium falciparum [5] = test: Antiplasmodial activity against sorbitol-synchronized ring stage chloroquine, mefloquine and pyrimethamine resistant Plasmodium falciparum Dd2 harboring N86F/M74I/ N75E/[…] mutation in MDR1 gene, N51I/C59R/S108N mutation in DHFR gene and S436F/A437G/A613S mutation in DHPS gene infected in erythrocytes measured after 48 hrs by SYBR green dye based fluorescence analysis; type: functional, organism-based; settings: Dd2, Erythrocyte
Plasmodium falciparum [6] = test: Antiplasmodial activity against sorbitol-synchronized ring stage MMV848 resistant Plasmodium falciparum 3D7 infected in erythrocytes measured after 48 hrs by SYBR green dye based fluorescence analysis; type: functional, organism-based; settings: 3D7, Erythrocyte
Plasmodium falciparum [7] = test: Resistance index, ratio of IC50 for antiplasmodial activity against sorbitol-synchronized ring stage chloroquine, mefloquine and pyrimethamine resistant Plasmodium falciparum Dd2 harboring N86F/M74I/ N75E/[…] mutation in MDR1 gene, N51I/C59R/S108N mutation in DHFR gene and S436F/A437G/A613S mutation in DHPS gene infected in erythrocytes to IC50 for antiplasmodial activity against sorbitol-synchronized ring stage chloroquine sensitive Plasmodium falciparum 3D7 infected in erythrocytes; type: functional
Plasmodium falciparum [8] = test: Antiplasmodial activity against sorbitol-synchronized ring stage chloroquine resistant Plasmodium falciparum K1 infected in erythrocytes measured after 48 hrs by SYBR green dye based fluorescence analysis; type: functional, organism-based; settings: K1, Erythrocyte
Plasmodium falciparum [9] = test: Antiplasmodial activity against sorbitol-synchronized ring stage atovaquone resistant Plasmodium falciparum TM90C6B harboring Y268S mutation in CYTB gene, Y184F mutation in MDR1 gene, N51I/C59R/S108N mutation in DHFR gene and S436F/A437G/A581G mutation in DHPS gene infected in erythrocytes measured after 48 hrs by SYBR green dye based fluorescence analysis; type: functional, organism-based; settings: Erythrocyte
[10] = Cytotoxicity against human HepG2 cells assessed as reduction in cell viability incubated for 72 hrs by MTT assay; type: toxicity, cell-based
Plasmodium falciparum [11] = test: Resistance index, ratio of IC50 for antiplasmodial activity against sorbitol-synchronized ring stage MMV848 resistant Plasmodium falciparum 3D7 infected in erythrocytes to IC50 for antiplasmodial activity against sorbitol-synchronized ring stage chloroquine sensitive Plasmodium falciparum 3D7 infected in erythrocytes; type: functional
Plasmodium falciparum [12] = test: Antiplasmodial activity against GFP expressing sorbitol-synchronized ring stage laboratory adapted Plasmodium falciparum 3D7HT assessed as reduction in infectivity by measuring inhibition of gametocyte formation at 10 uM treated for 72 hrs followed by replacement with fresh media without compound for 24 hrs and measured on day 4 by giemsa staining based microscopic analysis; type: functional
Plasmodium berghei = test: Antiplasmodial activity against GFP-expressing Plasmodium berghei HSP70 infected in CD-1 mouse assessed as inhibition of ookinete formation at 10 uM measured after 22 hrs by giemsa staining based microscopic analysis; type: functional; settings: read-out: INH
Plasmodium falciparum [13] = test: Antiplasmodial activity against sorbitol-synchronized ring stage 2-(1,1-difluoroethyl)-5-methyl-N-(4-(pentafluoro-l6-sulfaneyl)phenyl)-[1,2,4]triazolo[1,5-a]pyrimidin-7-amine resistant Plasmodium falciparum Dd2 infected in erythrocytes measured after 48 hrs by SYBR green dye based fluorescence analysis; type: functional, organism-based; settings: Dd2, Erythrocyte
[14] = Selectivity index, ratio of CC50 for human HepG2 cells to IC50 for antiplasmodial activity against sorbitol-synchronized ring stage chloroquine sensitive Plasmodium falciparum 3D7 infected in erythrocytes; type: toxicity, cell-based; settings: Plasmodium falciparum 3D7 in erythrocytes, read-out: Ratio CC50/IC50
Plasmodium falciparum [15] = test: Resistance index, ratio of IC50 for antiplasmodial activity against sorbitol-synchronized ring stage atovaquone resistant Plasmodium falciparum TM90C6B harboring Y268S mutation in CYTB gene, Y184F mutation in MDR1 gene, N51I/C59R/S108N mutation in DHFR gene and S436F/A437G/A581G mutation in DHPS gene infected in erythrocytes to IC50 for antiplasmodial activity against sorbitol-synchronized ring stage chloroquine sensitive Plasmodium falciparum 3D7 infected in erythrocytes; type: functional
Plasmodium falciparum [16] = test: Resistance index, ratio of IC50 for antiplasmodial activity against sorbitol-synchronized ring stage chloroquine resistant Plasmodium falciparum K1 infected in erythrocytes to IC50 for antiplasmodial activity against sorbitol-synchronized ring stage chloroquine sensitive Plasmodium falciparum 3D7 infected in erythrocytes; type: functional
Plasmodium falciparum [17] = test: Antiplasmodial activity against Plasmodium falciparum infected in erythrocytes assessed as induction of parasite death by measuring irreversible chromatin condensation with appearance of pyknotic nuclei at 300 nM measured after 24 hrs; type: functional, organism-based; settings: Erythrocyte
[18] = Ratio of IC50 for Plasmodium falciparum infected in erythrocytes measured after 24 hrs by SYBR green dye based fluorescence assay to IC50 for Plasmodium falciparum infected in erythrocytes measured after 72 hrs by SYBR green dye based fluorescence assay; type: functional, Erythrocyte
Plasmodium falciparum [19] = test: Antiplasmodial activity against Plasmodium falciparum infected in erythrocytes assessed as reduction in parasite growth at 500 nM measured until 24 hrs; type: functional, organism-based; settings: Erythrocyte

Cc1cc(N2CCN(c3ccnc4cc(Cl)ccc34)CC2)n2nc(C)cc2n1
Activity [1]: 108%
IC50 (Plasmodium falciparum [2]): 4400 nM
inhibition [3]: < 50%

Cc1cc(NCCCCCCCNc2ccnc3cc(Cl)ccc23)n2ncnc2n1
Ratio IC50 (Plasmodium falciparum [4]): 2.1
IC50 (Plasmodium falciparum [5]): 320 nM
IC50 (Plasmodium falciparum [6]): 120 nM
Ratio IC50 (Plasmodium falciparum [7]): 2.9
IC50 (Plasmodium falciparum [8]): 300 nM
IC50 (Plasmodium falciparum [9]): 200 nM
CC50 at 72 h [10]: 16000 nM
Ratio IC50 (Plasmodium falciparum [11]): 1.1
Activity [1]: 73.5%
inhibition at 10 µM (Plasmodium falciparum [12]): 2%
IC50 (Plasmodium falciparum [2]): 110 nM
Percent inhibition of ookinete formation at 10 µM (Plasmodium berghei): 30%
IC50 (Plasmodium falciparum [13]): 230 nM
inhibition [3]: < 50%
selectivity ratio [14]: 146
Ratio IC50 (Plasmodium falciparum [15]): 2.2

Cc1cc(NCCCCCCCNc2ccnc3cc(Cl)ccc23)n2nc(C)nc2n1
Ratio IC50 (Plasmodium falciparum [4]): 1.3
IC50 (Plasmodium falciparum [5]): 170 nM
IC50 (Plasmodium falciparum [6]): 50 nM
Ratio IC50 (Plasmodium falciparum [7]): 1.4
IC50 (Plasmodium falciparum [8]): 210 nM
IC50 (Plasmodium falciparum [9]): 180 nM
CC50 at 72 h [10]: 17000 nM
Ratio IC50 (Plasmodium falciparum [11]): 0.4
Activity [1]: 78.8%
inhibition at 10 µM (Plasmodium falciparum [12]): 85.8%
IC50 (Plasmodium falciparum [2]): 120 nM
Percent inhibition of ookinete formation at 10 µM (Plasmodium berghei): 0%
IC50 (Plasmodium falciparum [13]): 150 nM
inhibition [3]: < 50%
selectivity ratio [14]: 142
Ratio IC50 (Plasmodium falciparum [15]): 1.5

Cc1cc(NCCCCNc2ccnc3cc(Cl)ccc23)n2nc(C)nc2n1
CC50 at 72 h [10]: > 25000 nM
Activity [1]: 92%
Percent inhibition of ookinete formation at 10 µM (Plasmodium berghei): 0%
inhibition [3]: < 50%
selectivity ratio [14]: > 100

COc1cc(NC(C)CCCN)c2ncccc2c1 (centres undefined) [PRIMAQUINE]
inhibition at 10 µM (Plasmodium falciparum [12]): 86%

Cc1cc(N2CCN(c3ccnc4cc(Cl)ccc34)CC2)n2nc(C)nc2n1
Activity [1]: 93%
IC50 (Plasmodium falciparum [2]): > 10000 nM
inhibition [3]: < 50%

Cc1cc(NCCCNc2ccnc3cc(Cl)ccc23)n2nc(C)nc2n1
IC50 (Plasmodium falciparum [8]): 640 nM
CC50 at 72 h [10]: 110000 nM
Activity [1]: 97%
inhibition at 10 µM (Plasmodium falciparum [12]): 50%
IC50 (Plasmodium falciparum [2]): 840 nM
Percent inhibition of ookinete formation at 10 µM (Plasmodium berghei): 23%
Ratio IC50 (Plasmodium falciparum [16]): 0.8
inhibition [3]: < 50%
selectivity ratio [14]: 131

Cc1cc(Nc2ccc(S(F)(F)(F)(F)F)cc2)n2nc(C(C)(F)F)nc2n1 [DSM-265]
Ratio IC50 (Plasmodium falciparum [4]): 3
Activity [1]: < 10%
IC50 (Plasmodium falciparum [2]): 4 nM
IC50 (Plasmodium falciparum [13]): 12 nM

Cc1cc(NCCCNc2ccnc3cc(Cl)ccc23)n2nc(C(F)(F)F)nc2n1
IC50 (Plasmodium falciparum [8]): 3000 nM
CC50 at 72 h [10]: 113000 nM
Activity [1]: 51.5%
IC50 (Plasmodium falciparum [2]): 673 nM
Ratio IC50 (Plasmodium falciparum [16]): 4.5
inhibition [3]: < 50%
selectivity ratio [14]: 168

Cc1cc(NCCCCNc2ccnc3cc(Cl)ccc23)n2nc(C(F)(F)F)nc2n1
IC50 (Plasmodium falciparum [8]): 300 nM
CC50 at 72 h [10]: > 25000 nM
Activity [1]: 80.8%
inhibition at 10 µM (Plasmodium falciparum [12]): 43%
IC50 (Plasmodium falciparum [2]): 310 nM
Percent inhibition of ookinete formation at 10 µM (Plasmodium berghei): 42%
Ratio IC50 (Plasmodium falciparum [16]): 1
inhibition [3]: < 50%
selectivity ratio [14]: > 81

O=C1C(O)=C([C@H]2CC[C@H](c3ccc(Cl)cc3)CC2)C(=O)c2ccccc21 [ATOVAQUONE]
IC50 (Plasmodium falciparum [9]): > 1000 nM
IC50 (Plasmodium falciparum [2]): 1 nM
Percent inhibition of ookinete formation at 10 µM (Plasmodium berghei): 78%

C[C@H]1[C@H](OC(=O)CCC(=O)O)O[C@@H]2O[C@@]3(C)CC[C@H]4[C@H](C)CC[C@@H]1[C@@]24OO3 [ARTESUNATE]
Activity (Plasmodium falciparum [17]): Active
Ratio IC50 [18]: 1.04

Cc1cc(N2CCN(c3ccnc4cc(Cl)ccc34)CC2)n2nc(C(F)(F)F)nc2n1
Activity [1]: 105%
IC50 (Plasmodium falciparum [2]): 7000 nM
inhibition [3]: < 50%

CCc1nc(N)nc(N)c1-c1ccc(Cl)cc1 [PYRIMETHAMINE]
Activity (Plasmodium falciparum [19]): inactive
Ratio IC50 [18]: 3

Cc1cc(NCCCCNc2ccnc3cc(Cl)ccc23)n2nc(C)cc2n1
CC50 at 72 h [10]: > 100000 nM
Activity [1]: 89.4%
Percent inhibition of ookinete formation at 10 µM (Plasmodium berghei): 22%
inhibition [3]: < 50%
selectivity ratio [14]: > 1570

CCN(CC)CCCC(C)Nc1ccnc2cc(Cl)ccc12 (centres undefined) [CHLOROQUINE]
CC50 at 72 h [10]: 398000 nM
